Values joined by “and” are separate entries in the source; they are usually repeats but may differ in a detail not shown here. Equal values may be shown once.
Test system: 292921-168-R-J2-PDC complex spheroid viability
Assay: Anticancer human tumor 292921-168-R-J2-PDC patient-derived pancreatic carcinoma cell line growth inhibition
Conditions: for viability, T/C: stronger effect = lower value
In short: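 Multicellular complex spheroids of tumor cells with human endothelial cells (HUVEC) and mesenchymal stem cells; the LSD1 inhibitor iadademstat was combined with standard-of-care or investigational agents. Top concentration at or near clinical Cmax, half-log dilutions; final DMSO ≤0.25%.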

[1] = curve of first compound, second compound 0.1 µM
[2] = curve of first compound, second compound 0.316 µM
[3] = curve of first compound, second compound 1 µM
[4] = curve of first compound, second compound 3.16 µM
[5] = curve of first compound, second compound 10 µM
[6] = second compound 0.1 µM, first compound 0.000949 µM
[7] = second compound 0.1 µM, first compound 0.003 µM
[8] = second compound 0.1 µM, first compound 0.00949 µM
[9] = second compound 0.1 µM, first compound 0.03 µM
[10] = second compound 0.1 µM, first compound 0.0949 µM
[11] = second compound 0.1 µM, first compound 0.3 µM
[12] = second compound 0.316 µM, first compound 0.000949 µM
[13] = second compound 0.316 µM, first compound 0.003 µM
[14] = second compound 0.316 µM, first compound 0.00949 µM
[15] = second compound 0.316 µM, first compound 0.03 µM
[16] = second compound 0.316 µM, first compound 0.0949 µM
[17] = second compound 0.316 µM, first compound 0.3 µM
[18] = second compound 1 µM, first compound 0.000949 µM
[19] = second compound 1 µM, first compound 0.003 µM
[20] = second compound 1 µM, first compound 0.00949 µM
[21] = second compound 1 µM, first compound 0.03 µM
[22] = second compound 1 µM, first compound 0.0949 µM
[23] = second compound 1 µM, first compound 0.3 µM
[24] = second compound 3.16 µM, first compound 0.000949 µM
[25] = second compound 3.16 µM, first compound 0.003 µM
[26] = second compound 3.16 µM, first compound 0.00949 µM
[27] = second compound 3.16 µM, first compound 0.03 µM
[28] = second compound 3.16 µM, first compound 0.0949 µM
[29] = second compound 3.16 µM, first compound 0.3 µM
[30] = second compound 10 µM, first compound 0.000949 µM
[31] = second compound 10 µM, first compound 0.003 µM
[32] = second compound 10 µM, first compound 0.00949 µM
[33] = second compound 10 µM, first compound 0.03 µM
[34] = second compound 10 µM, first compound 0.0949 µM
[35] = second compound 10 µM, first compound 0.3 µM
[36] = second compound 0.1 µM, first compound 0.949 µM
[37] = second compound 0.1 µM, first compound 3 µM
[38] = second compound 0.316 µM, first compound 0.949 µM
[39] = second compound 0.316 µM, first compound 3 µM
[40] = second compound 1 µM, first compound 0.949 µM
[41] = second compound 1 µM, first compound 3 µM
[42] = second compound 3.16 µM, first compound 0.949 µM
[43] = second compound 3.16 µM, first compound 3 µM
[44] = second compound 10 µM, first compound 0.949 µM
[45] = second compound 10 µM, first compound 3 µM
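Further: seven day compound exposure before luminescent viability read.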
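Wherever viability, T/C is given: 100% = DMSO vehicle control wells.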

Row | Compound | IC50 [1] | IC50 [2] | IC50 [3] | IC50 [4] | IC50 [5] | viability, T/C [8] | viability, T/C [9] | viability, T/C [10] | viability, T/C [11] | viability, T/C [14] | viability, T/C [15] | viability, T/C [16] | viability, T/C [17] | viability, T/C [20] | viability, T/C [21] | viability, T/C [22] | viability, T/C [23] | viability, T/C [26] | viability, T/C [27] | viability, T/C [28] | further results
1 | Nc1ncn(C2CC(O)C(CO)S2)c(=O)n1 (configuration not stated) + NC1CC1c1ccc(-c2cccc(O)c2)cc1 | 61.3 nM | 53.1 nM | 50.3 nM | 40 nM | 36.5 nM | 73.2% | 62.2% | 42.7% | 11.5% | 63.9% | 63.1% | 37.3% | 13.3% | 74.4% | 56.9% | 38.5% | 12.8% | 62.6% | 55.1% | 36% | viability, T/C [6]: 83%; viability, T/C [7]: 80.8%; viability, T/C [12]: 66.8%; viability, T/C [13]: 73.2%; viability, T/C [18]: 63.9%; viability, T/C [19]: 67%; viability, T/C [24]: 67.5%; viability, T/C [25]: 66.8%; viability, T/C [29]: 12.8%; viability, T/C [30]: 55.2%; viability, T/C [31]: 62%; viability, T/C [32]: 59.9%; viability, T/C [33]: 52.8%; viability, T/C [34]: 33.6%; viability, T/C [35]: 15.5%
2 | NS(=O)(=O)OCC1CC(n2ccc3c(NC4CCc5ccccc54)ncnc32)CC1O (configuration not stated) + NC1CCC(NC2CC2c2ccccc2)CC1 | 16.8 nM | 16.7 nM | 16.1 nM | 15.3 nM | 12.8 nM | 83.8% | 15.6% | 3.97% | 1.88% | 83.4% | 15.3% | 4.75% | 3.14% | 77.6% | 17.4% | 4.76% | 2.36% | 72.7% | 18.4% | 4.6% | viability, T/C [36]: 1.9%; viability, T/C [37]: 2.04%; viability, T/C [38]: 2.25%; viability, T/C [39]: 1.88%; viability, T/C [40]: 2.12%; viability, T/C [41]: 1.71%; viability, T/C [29]: 2.14%; viability, T/C [42]: 1.54%; viability, T/C [43]: 1.63%; viability, T/C [32]: 62.3%; viability, T/C [33]: 15.6%; viability, T/C [34]: 4.83%; viability, T/C [35]: 2.29%; viability, T/C [44]: 1.42%; viability, T/C [45]: 0.82%
3 | Nc1ccn(C2OC(CO)C(O)C2(F)F)c(=O)n1 (configuration not stated) + NC1CC1c1ccc(-c2cccc(O)c2)cc1 | < 0.949 nM | < 0.949 nM | < 0.949 nM | < 0.949 nM | < 0.949 nM | 6.54% | 5.59% | 7.33% | 5.81% | 4.8% | 5.72% | 5.73% | 5.51% | 5.25% | 5.86% | 5.98% | 6.01% | 5.33% | 6.76% | 5.59% | viability, T/C [6]: 29.5%; viability, T/C [7]: 10.6%; viability, T/C [12]: 30.2%; viability, T/C [13]: 9.61%; viability, T/C [18]: 27%; viability, T/C [19]: 8.35%; viability, T/C [24]: 27.8%; viability, T/C [25]: 10%; viability, T/C [29]: 6.51%; viability, T/C [30]: 28.4%; viability, T/C [31]: 11.2%; viability, T/C [32]: 7.89%; viability, T/C [33]: 7.46%; viability, T/C [34]: 7.74%; viability, T/C [35]: 7.58%
4 | CCN(c1cc(-c2ccc(CN3CCOCC3)cc2)cc(C(=O)NCc2c(C)cc(C)[nH]c2=O)c1C)C1CCOCC1 + NC1CCC(NC2CC2c2ccccc2)CC1 | 953 nM | 694 nM | 647 nM | 649 nM | 453 nM | 67.3% | 69.7% | 76.6% | 63.5% | 77.2% | 71.7% | 66.6% | 66.8% | 60% | 61.8% | 67.6% | 61% | 59.8% | 68.4% | 68.1% | viability, T/C [36]: 50.6%; viability, T/C [37]: 21.3%; viability, T/C [38]: 44%; viability, T/C [39]: 18.4%; viability, T/C [40]: 44.3%; viability, T/C [41]: 17.7%; viability, T/C [29]: 57.6%; viability, T/C [42]: 45.6%; viability, T/C [43]: 18.5%; viability, T/C [32]: 62.8%; viability, T/C [33]: 64.3%; viability, T/C [34]: 63.4%; viability, T/C [35]: 56.8%; viability, T/C [44]: 37.4%; viability, T/C [45]: 15.8%
5 | Nc1ncn(C2CC(O)C(CO)O2)c(=O)n1 (configuration not stated) | – | – | – | – | – | – | – | – | – | – | – | – | – | – | – | – | – | – | – | – | viability, T/C (compound 0.00316 µM): 98.6% and 89%; viability, T/C (compound 0.01 µM): 96.7% and 91.5%; viability, T/C (compound 0.0316 µM): 71.8% and 82.9%; viability, T/C (compound 0.1 µM): 69.7% and 73.9%; viability, T/C (compound 0.316 µM): 63.4% and 63.6%; viability, T/C (compound 1 µM): 55.4% and 58.2%; IC50 (curve of compound): > 1000 nM

Source: PubChem BioAssay AID1918934 (Molecular Pharmacology Branch, DTP, NCI, 2023)
